Experimental data from patent publication US12544343B2, “Treatment of inflammatory condition in mucous membrane or skin” (MUCOCORT AB, priority 2019, dated 2026).
Entries after “also recorded” stand apart in the source; their conditions may differ.

How the values were obtained:
TNF-α production = TNF-α production by LPS-stimulated human PBMC (ELISA); format: cell-based
Protocol: (§1) Human venous blood was sampled and collected in heparinized vials and mix well by gently inverting the tubes several times. Human peripheral blood mononuclear cells (PBMCs) were isolated by gradient centrifugation using Ficoll-Histopaque®. Cells were washed (centrifuged at 400×g for 10 min) with sterile phosphate-buffered saline (PBS). PBS was discarded, and the cell pellet re-suspended in sterile Dulbecco's Modified Eagle's Medium (DMEM). Cells were then counted by haemocytometer using white blood cell (W.B.C.) diluting fluid: 15 μl of cell suspension was added to 15 μl trypan blue and mixed well. The cell suspension was loaded in a haemocytometer and the cells were counted. The cell concentration was adjusted at 2×10^6 cells/ml with DMEM supplemented with 1% of penicillin-streptomycin solution and 5% human serum. The approximate yield of cells varied between 107-10^8 cells/ml. 1 ml of cell suspension was seeded in a 24 well culture plate. 1 ml propane-1,2-diol diluted in DMEM was added at various concentrations (from 0 to 100 mM). Phytohemagglutinin (PHA), 15 μl, was added to a final concentration of 1 μg/ml. When the effect of different concentrations of PHA were studied (FIG. 1), the range used varied from 0 to 25 μg/ml. The plate was incubated for 24 h at +37° C. and in 5% CO2. The plate was then frozen at −20° C. until further analysis. After thawing the samples, an enzyme-linked immunosorbent assay (ELISA) was performed according to the manufacturer's specifications. In vitro culture of human PBMCs was performed as described above in Example 1. In brief, 1 ml propane-1,2-diol was added to 1 ml PBMC to obtain a range of 30 final concentrations (0 to 100 mM). 15 μl LPS was added to a final concentration of 100 nM and the cell suspension was incubated at 37° C. in 5% CO2 for 24 h. The plate was then frozen in −20° C. until the ELISA analysis. TNF-α production was determined by ELISA using procedures (BioSite, Sweden; Art. No: EA102165) according to the manufacturer's specifications.

IL-2 production = IL-2 production by PHA-stimulated human PBMC (ELISA); format: cell-based; details: 100 mM propane-1,2-diol, 1 μg/ml PHA-stimulated PBMC, FIG. 4
Protocol: as §1, with “[…] IL-2” for “The plate was incubated for 24 h at +37° C. and in 5% CO2. The plate was then frozen at −20° C. until further analysis. After thawing the samples, an enzyme-linked immunosorbent assay (ELISA) was performed according to the manufacturer's specifications. In vitro culture of human PBMCs was performed as described above in Example 1. In brief, 1 ml propane-1,2-diol was added to 1 ml PBMC to obtain a range of 30 final concentrations (0 to 100 mM). 15 μl LPS was added to a final concentration of 100 nM and the cell suspension was incubated at 37° C. in 5% CO2 for 24 h. The plate was then frozen in −20° C. until the ELISA analysis. TNF-α”

pig oral mucosa = test: Dehydration effect towards oral mucosa (immersion of tissue in solution)
Protocol: Fresh pig oral mucosa (300-700 mg) was equilibrated at room temperature at 40% relative humidity (RH), weighed and immersed in 5 ml of the investigated solution for 20 h at room temperature (RT, ˜20-25° C.). The tissue was removed from the solution, dried by blotting and weighed. Finally, it was dried at +40° C. for 24 h.

PBMC = format: cell-based, human
Protocol: This Example investigated whether the inhibition of TNF-α in Example 2 and/or IL-2 in Example 3 was due to cell death of the PBMCs.
PBMCs were isolated from one donor as described in Example 1. 1 ml of 2×10^6 PBMC cells were added to 12 wells in a 24-well plate. 1 ml of 2000 mM propane-1,2-diol was added to two of the wells to get a final concentration of 1000 mM (8% propane-1,2-diol). The same procedure was used to obtain decreasing concentrations of propane-1,2-diol (500 mM (4% propane-1,2-diol), 250 mM (2% propane-1,2-diol), 125 mM (1% propane-1,2-diol), 62.5 mM (0.5% propane-1,2-diol)). After 24 hrs incubation at 37° C. and 5% CO2, 15 μl of each cell culture was mixed with 15 μl of tryptan blue and dead cells out of 100 cells were counted under a light microscope.

CC(O)CO (stereo not shown) [propane-1,2-diol] was tested, and the “inhibition of TNF-α, concentration dependence” value (TNF-α production; 0 to 100 mM, LPS-stimulated PBMC from 4 individuals, FIGS. 1A-1D) was “concentration-dependent inhibition”, the “inhibition of TNF-α at 100 mM” value (TNF-α production; 100 mM propane-1,2-diol, LPS-stimulated PBMC from 4 individuals, 24 h, FIGS. 1A-1D) was “maximal inhibition; also recorded: strong inhibition” and the “inhibition of TNF-α in PBMC from 12 individuals” value (TNF-α production; 100 mM, LPS-stimulated PBMCs from 12 different individuals, FIG. 2) was “inhibition was observed in all 12 individuals”. The “IL-2 production reduced, patient A” value (IL-2 production; patient A) was 53%, the “IL-2 production reduced, patient B” value (IL-2 production; patient B) was 64% and the “dehydration effect at 1% and 5%” value (pig oral mucosa; propane-1,2-diol solutions at concentration of 1% and 5%) was “No dehydration effect”. For the same compound, the “dehydration effect at 50%, 80% and 100%” value (pig oral mucosa; propane-1,2-diol solutions at concentrations 50%, 80% and 100%) was “dehydration effect was evident”, the “cell death of peripheral blood mononuclear cells at 5% (w/v)” value (PBMC) was “induced a significant cell death” and the “toxic effect / cell death of PBMCs, up to 1%” value (PBMC) was “did not have any significant toxic effect”. The “toxic effects / cell death at an amount according to the invention” value (PBMC) was “does not have any significant toxic effects”.
